# In patent EP1077981B1, “NOVEL CEPHALOSPORIN COMPOUNDS, PROCESSES FOR PREPARATION THEREOF AND ANTIMICROBIAL COMPOSITIONS CONTAINING THE SAME” (LG CHEMICAL LIMITED, priority 1998, dated 1999):
# Read-outs that look alike come from different tables or passages of the source.
# How the values were obtained:
# Assay in all cases: MIC against standard strains (agar dilution)
# Type in all cases: cell-based
# [1] = tested on: Moraxella catarrhalis C2431
# Description: (§1) Test example 1: Measurement of Minimum Inhibitory Concentration (MIC)
# (§2) Specifically, test compounds were diluted by 2-fold dilution method and dispersed in Mueller-Hinton agar medium and then, 2µℓ of test strains were inoculated at a concentration of 10^7 cfu(colony forming unit)/mℓ on the medium and incubated for 20 hours at 37°C.
# [2] = tested on: Staphylococcus epidermidi 887E
# Description: as §1, §2
# [3] = tested on: Staphylococcus aureus 6538p
# Description: as §1, §2
# Escherichia coli 3190Y = conditions: Escherichia coli, 3190Y, 20 h
# Description: as §1, §2
# [4] = tested on: Moraxella catarrhalis 25240
# Description: as §1, §2
# [5] = tested on: Serratia marcescens 1826E
# Description: as §1, §2
# [6] = tested on: Escherichia coli TEM3 3455E; conditions: TEM33455E, 20 h
# Description: as §1, §2
# [7] = tested on: Morganella morganii 1375E
# Description: as §1, §2
# Proteus vulgaris 6059 = tested on: Proteus vulgaris 6059
# Description: as §1, §2
# [8] = tested on: Enterobacter cloacae IND+VE 1194E
# Description: as §1, §2
# [9] = tested on: Citrobacter diversus 2046E; conditions: Citrobacter koseri
# Description: as §1, §2
# Escherichia coli 851E = conditions: Escherichia coli, 851E, 20 h
# Description: as §1, §2
# [10] = tested on: Salmonella typhimurium 14028; conditions: Salmonella enterica
# Description: as §1, §2
# Enterobacter cloacae P99 = tested on: Enterobacter cloacae P99
# Description: as §1, §2
# [11] = tested on: Acinetobacter calcoaceticu 15473
# Description: as §1, §2
# [12] = tested on: Klebsiella aerogenes K1+ 1082E
# Description: as §1, §2
# [13] = tested on: Klebsiella aerogenes SHV-1 1976E; conditions: Klebsiella aerogenes, 20 h
# Description: as §1, §2
# [14] = tested on: Pseudomonas aeruginosa 1912E
# Description: as §1, §2
# [15] = tested on: Staphylococcus aureus 241
# Description: as §1, §2
# [16] = tested on: Klebsiella pneumoniae 2011E
# Description: as §1, §2
# [17] = tested on: Escherichia coli TEM1 1193E; conditions: TEM11193E, 20 h
# Description: as §1, §2
# Staphylococcus aureus 77 = tested on: Staphylococcus aureus 77
# Description: as §1, §2
# [18] = tested on: Staphylococcus aureus giorgio
# Description: as §1, §2
# [19] = tested on: Enterococcus faecalis 29212
# Description: as §1, §2
# [20] = tested on: Citrobacter freundii 8090
# Description: as §1, §2
# [21] = tested on: Pseudomonas aeruginosa 6065Y
# Description: as §1, §2
# [22] = tested on: Escherichia coli TEM9 2639E; conditions: TEM92639E
# Description: as §1, §2
# Escherichia coli 10536 = tested on: Escherichia coli 10536
# Description: as §1, §2
# [23] = Moraxella catarrhalis C2431, Mueller-Hinton agar, 20 hours at 37°C, read-out: MIC
# [24] = Staphylococcus epidermidi 887E, Mueller-Hinton agar, 20 hours at 37°C, read-out: MIC
# [25] = Staphylococcus aureus 6538p, Mueller-Hinton agar, 20 hours at 37°C, read-out: MIC
# [26] = Moraxella catarrhalis 25240, Mueller-Hinton agar, 20 hours at 37°C, read-out: MIC
# [27] = Serratia marcescens 1826E, Mueller-Hinton agar, 20 hours at 37°C, read-out: MIC
# [28] = Morganella morganii 1375E, Mueller-Hinton agar, 20 hours at 37°C, read-out: MIC
# [29] = Proteus vulgaris 6059, Mueller-Hinton agar, 20 hours at 37°C, read-out: MIC
# [30] = Enterobacter cloacae IND+VE 1194E, Mueller-Hinton agar, 20 hours at 37°C, read-out: MIC
# [31] = Citrobacter diversus 2046E, Mueller-Hinton agar, 20 hours at 37°C, read-out: MIC
# [32] = Salmonella typhimurium 14028, Mueller-Hinton agar, 20 hours at 37°C, read-out: MIC
# [33] = Enterobacter cloacae P99, Mueller-Hinton agar, 20 hours at 37°C, read-out: MIC
# [34] = Acinetobacter calcoaceticu 15473, Mueller-Hinton agar, 20 hours at 37°C, read-out: MIC
# [35] = Klebsiella aerogenes K1+ 1082E, Mueller-Hinton agar, 20 hours at 37°C, read-out: MIC
# [36] = Pseudomonas aeruginosa 1912E, Mueller-Hinton agar, 20 hours at 37°C, read-out: MIC
# [37] = Staphylococcus aureus 241, Mueller-Hinton agar, 20 hours at 37°C, read-out: MIC
# [38] = Klebsiella pneumoniae 2011E, Mueller-Hinton agar, 20 hours at 37°C, read-out: MIC
# [39] = Staphylococcus aureus 77, Mueller-Hinton agar, 20 hours at 37°C, read-out: MIC
# [40] = Staphylococcus aureus giorgio, Mueller-Hinton agar, 20 hours at 37°C, read-out: MIC
# [41] = Enterococcus faecalis 29212, Mueller-Hinton agar, 20 hours at 37°C, read-out: MIC
# [42] = Citrobacter freundii 8090, Mueller-Hinton agar, 20 hours at 37°C, read-out: MIC
# [43] = Pseudomonas aeruginosa 6065Y, Mueller-Hinton agar, 20 hours at 37°C, read-out: MIC
# [44] = Escherichia coli TEM9 2639E, Mueller-Hinton agar, 20 hours at 37°C, read-out: MIC
# [45] = Escherichia coli 10536, Mueller-Hinton agar, 20 hours at 37°C, read-out: MIC
# [46] = Moraxella catarrhalis, C2431, 20 h
# [47] = Staphylococcus aureus, 6538P, 20 h
# [48] = Moraxella catarrhalis, 25240, 20 h
# [49] = Serratia marcescens, 1826E, 20 h
# [50] = Morganella morganii, 1375E, 20 h
# [51] = Enterobacter cloacae, P99, 20 h
# [52] = Pseudomonas aeruginosa, 1912E, 20 h
# [53] = Staphylococcus aureus, 241, 20 h
# [54] = Klebsiella pneumoniae, 2011E, 20 h
# [55] = Staphylococcus aureus, 77, 20 h
# [56] = Enterococcus faecalis, 29212, 20 h
# [57] = Citrobacter freundii, 8090, 20 h
# [58] = Pseudomonas aeruginosa, 6065Y, 20 h
structure (smiles),measurement,setting,value
"Nc1cc(SC2=C(C(=O)O)N3C(=O)C(NC(=O)/C(=N\O)c4csc(N)n4)C3SC2)nc(N)n1 (stereo not shown) [compound 26, 7-[(Z)-2-(2-amino-thiazol-4-yl)-2-hydroxyimino-acetylamino]-3-(2,6-diamino-pyrimidin-4-ylsulfanyl)-8-oxo-5-thia-1-azabicyclo[4,2,0]oct-2-ene-2-carboxylic acid]",MIC,[1]; [23],0.016 µg/mL
same,MIC,[2]; [24],2 µg/mL
same,MIC,[3]; [25],0.5 µg/mL
same,MIC,Escherichia coli 3190Y,0.031 µg/mL
same,MIC,[4]; [26],≤ 0.008 µg/mL
same,MIC,[5]; [27],64 µg/mL
same,MIC,[6],64 µg/mL
same,MIC,[7]; [28],0.25 µg/mL
same,MIC,Proteus vulgaris 6059; [29],0.031 µg/mL
same,MIC,[8]; [30],> 64 µg/mL
same,MIC,[9]; [31],> 64 µg/mL
same,MIC,Escherichia coli 851E,0.063 µg/mL
same,MIC,[10]; [32],0.13 µg/mL
same,MIC,Enterobacter cloacae P99; [33],> 64 µg/mL
same,MIC,[11]; [34],32 µg/mL
same,MIC,[12]; [35],> 64 µg/mL
same,MIC,[13],0.5 µg/mL
same,MIC,[14]; [36],> 64 µg/mL
same,MIC,[15]; [37],8 µg/mL
same,MIC,[16]; [38],1 µg/mL
same,MIC,[17],0.5 µg/mL
same,MIC,Staphylococcus aureus 77; [39],2 µg/mL
same,MIC,[18]; [40],0.25 µg/mL
same,MIC,[19]; [41],16 µg/mL
same,MIC,[20]; [42],8 µg/mL
same,MIC,[21]; [43],> 64 µg/mL
same,MIC,[22]; [44],32 µg/mL
same,MIC,Escherichia coli 10536; [45],0.063 µg/mL
"CCO/N=C(\C(=O)NC1C(=O)N2C(C(=O)O)=C(Sc3cc(N)nc(N)n3)CSC12)c1csc(N)n1 (stereo not shown) [compound 27, 7-[(Z)-2-(2-amino-thiazol-4-yl)-2-ethoxyiminoacetylamino]-3-(2,6-diamino-pyrimidin-4-ylsulfanyl)-8-oxo-5-thia-1-aza-bi cyclo[4,2,0]oct-2-ene-2-carboxylic acid]",MIC,[1]; [23],≤ 0.008 µg/mL
same,MIC,[2]; [24],8 µg/mL
same,MIC,[3]; [25],2 µg/mL
same,MIC,Escherichia coli 3190Y,0.13 µg/mL
same,MIC,[4]; [26],≤ 0.008 µg/mL
same,MIC,[5]; [27],4 µg/mL
same,MIC,[6],16 µg/mL
same,MIC,[7]; [28],0.25 µg/mL
same,MIC,Proteus vulgaris 6059; [29],0.063 µg/mL
same,MIC,[8]; [30],> 64 µg/mL
same,MIC,[9]; [31],64 µg/mL
same,MIC,Escherichia coli 851E,0.25 µg/mL
same,MIC,[10]; [32],1 µg/mL
same,MIC,Enterobacter cloacae P99; [33],> 64 µg/mL
same,MIC,[11]; [34],32 µg/mL
same,MIC,[12]; [35],> 64 µg/mL
same,MIC,[13],0.5 µg/mL
same,MIC,[14]; [36],8 µg/mL
same,MIC,[15]; [37],8 µg/mL
same,MIC,[16]; [38],2 µg/mL
same,MIC,[17],0.5 µg/mL
same,MIC,Staphylococcus aureus 77; [39],4 µg/mL
same,MIC,[18]; [40],0.5 µg/mL
same,MIC,[19]; [41],64 µg/mL
same,MIC,[20]; [42],2 µg/mL
same,MIC,[21]; [43],64 µg/mL
same,MIC,[22]; [44],64 µg/mL
same,MIC,Escherichia coli 10536; [45],0.25 µg/mL
"C#CCO/N=C(\C(=O)NC1C(=O)N2C(C(=O)O)=C(Sc3cc(N)nc(N)n3)CSC12)c1csc(N)n1 (stereo not shown) [compound 28, 7-[(Z)-2-(2-amino-thiazol-4-yl)-2-propyn-2-yioxyimino-acetylamino]-3-(2,6-diamino-pyrimidin-4-ylsulfanyl)-8-oxo-5-thia1-aza-bicyclo[4,2,0]oct-2-ene-2-carboxylic acid]",MIC,[1]; [46],0.016 µg/mL
same,MIC,"[2]; Staphylococcus, 887E, 20 h",8 µg/mL
same,MIC,[3]; [47],1 µg/mL
same,MIC,Escherichia coli 3190Y,0.13 µg/mL
same,MIC,[4]; [48],0.016 µg/mL
same,MIC,[5]; [49],8 µg/mL
same,MIC,[6],16 µg/mL
same,MIC,[7]; [50],0.25 µg/mL
same,MIC,"Proteus vulgaris 6059; Proteus vulgaris, 6059, 20 h",0.031 µg/mL
same,MIC,"[8]; Enterobacter cloacae, 20 h",> 64 µg/mL
same,MIC,"[9]; 2046E, 20 h",> 64 µg/mL
same,MIC,Escherichia coli 851E,0.25 µg/mL
same,MIC,"[10]; TYPHIMURIUM, 20 h",1 µg/mL
same,MIC,Enterobacter cloacae P99; [51],> 64 µg/mL
same,MIC,"[11]; Acinetobacter, 15473, 20 h",32 µg/mL
same,MIC,"[12]; Klebsiella aerogenes, 20 h",> 64 µg/mL
same,MIC,[13],0.5 µg/mL
same,MIC,[14]; [52],32 µg/mL
same,MIC,[15]; [53],8 µg/mL
same,MIC,[16]; [54],2 µg/mL
same,MIC,[17],0.5 µg/mL
same,MIC,Staphylococcus aureus 77; [55],4 µg/mL
same,MIC,"[18]; Staphylococcus aureus, 20 h",0.5 µg/mL
same,MIC,[19]; [56],32 µg/mL
same,MIC,[20]; [57],2 µg/mL
same,MIC,[21]; [58],64 µg/mL
same,MIC,"[22]; Escherichia coli, 20 h",64 µg/mL
same,MIC,"Escherichia coli 10536; Escherichia coli, 10536, 20 h",0.25 µg/mL
CCO/N=C(\C(=O)NC1C(=O)N2C(C(=O)O)=C(Sc3cc(N)nc(N)n3)CSC12)c1nsc(N)n1 (stereo not shown) [compound 29],MIC,[1]; [46],≤ 0.008 µg/mL
same,MIC,"[2]; Staphylococcus, 887E, 20 h",8 µg/mL
same,MIC,[3]; [47],2 µg/mL
same,MIC,Escherichia coli 3190Y,0.063 µg/mL
same,MIC,[4]; [48],≤ 0.008 µg/mL
same,MIC,[5]; [49],4 µg/mL
same,MIC,[6],32 µg/mL
same,MIC,[7]; [50],0.25 µg/mL
same,MIC,"Proteus vulgaris 6059; Proteus vulgaris, 6059, 20 h",0.063 µg/mL
same,MIC,"[8]; Enterobacter cloacae, 20 h",> 64 µg/mL
same,MIC,"[9]; 2046E, 20 h",> 64 µg/mL
same,MIC,Escherichia coli 851E,0.25 µg/mL
same,MIC,"[10]; TYPHIMURIUM, 20 h",1 µg/mL
same,MIC,Enterobacter cloacae P99; [51],> 64 µg/mL
same,MIC,"[11]; Acinetobacter, 15473, 20 h",32 µg/mL
same,MIC,"[12]; Klebsiella aerogenes, 20 h",> 64 µg/mL
same,MIC,[13],1 µg/mL
same,MIC,[14]; [52],8 µg/mL
same,MIC,[15]; [53],8 µg/mL
same,MIC,[16]; [54],2 µg/mL
same,MIC,[17],1 µg/mL
same,MIC,Staphylococcus aureus 77; [55],4 µg/mL
same,MIC,"[18]; Staphylococcus aureus, 20 h",1 µg/mL
same,MIC,[19]; [56],64 µg/mL
same,MIC,[20]; [57],2 µg/mL
same,MIC,[21]; [58],> 64 µg/mL
same,MIC,"[22]; Escherichia coli, 20 h",64 µg/mL
same,MIC,"Escherichia coli 10536; Escherichia coli, 10536, 20 h",0.13 µg/mL
